These are literature values, as cited in patent US20170101350A1, “SYNTHETIC ACID COMPOSITIONS AND USES THEREOF” (priority 2014, published 2017).

For the data set the following is noted: death in 2-3 minutes.

SMILES strings stand for the structures.

Turning to `Cl` [hydrogen chloride gas, hydrogen chloride], the “levels at which death can occur” value is 1300-2000 ppm.
